The assay concerns HCT 116 cells transfected with a luciferase reporter under the control of an HIF-responsive sequence. Nature of the assay: HIF-luciferase assay. In kind it is cell-based. To be noted: Homo sapiens; HCT 116 HIF-luciferase reporter cells, hypoxia chamber (1% O2), 24 h; in some cases means of up to four individual determinations. As to the method:
HCT 116 cells were transfected in a stable manner with a plasmid which contained a luciferase reporter under the control of an HIF-responsive sequence. These cells were sown in microtitre plates [20 000 cells/cavity in RPMI 1640 medium with 10% foetal calf serum (FCS) and 100 μg/ml of hygromycin]. Incubation was carried out overnight under standard conditions (5% CO2, 21% O2, 37° C., moistened). The following morning the cells were incubated with various concentrations of the test substances (0-10 μmol/l) in a hypoxia chamber (1% O2). After 24 h, Bright Glo reagent (Promega, Wisconsin, USA) was added in accordance with the manufacturer's instructions, and after 5 min the luminescence was measured. Cells which were incubated under normoxia served as background controls.
The IC50 values from this assay for representative working examples are listed in the following table (in same cases as means of up to four individual determinations): […]

Molecules are shown by their SMILES.

Usually IC50 stands for the concentration at which inhibition is half-maximal. Low readings indicate inhibition by little substance, high ones a need for much substance. As for `Cc1cc(/C(F)=C/c2ccc(C3(C(F)(F)F)CC3)cc2)nn1Cc1cccc(N2CCC(O)CC2)c1` [Example 14, 1-[3-({3-[(Z)-1-Fluoro-2-{4-[1-(trifluoromethyl)cyclopropyl]phenyl}vinyl]-5-methyl-1H-pyrazol-1-yl}methyl)phenyl]piperidin-4-ol], the IC50 was found to be 0.2 nM.

In the case of `Cc1cc(/C(F)=C/c2ccc(C3(C(F)(F)F)CC3)cc2)nn1Cc1ccnc(N2CCN(C3CC3)CC2)c1` [Example 105, 1-Cyclopropyl-4-[4-({3-[(Z)-1-fluoro-2-{4-[1-(trifluoromethyl)cyclopropyl]phenyl}vinyl]-5-methyl-1H-pyrazol-1-yl}methyl)pyridin-2-yl]piperazine], half-maximal inhibition (IC50) required 0.5 nM.

`Cc1cc(/C(F)=C/c2ccc(C(C)(C)C(F)(F)F)cc2)nn1Cc1cccc(C2(CO)CC2)c1` [Example 57, (1-{3-[(3-{(Z)-1-Fluoro-2-[4-(1,1,1-trifluoro-2-methylpropan-2-yl)phenyl]vinyl}-5-methyl-1H-pyrazol-1-yl)methyl]phenyl}cyclopropyl)methanol]: the midpoint of inhibition, the IC50, lay at 1 nM. This IC50 lies about 2-fold higher than the previous one.

Regarding `Cc1cc(/C(F)=C/c2ccc(C(C)(C)C)cc2)nn1Cc1ccnc(N2CCN(CC(F)(F)F)CC2)c1` [Example 110, 1-[4-({3-[(Z)-2-(4-tert-Butylphenyl)-1-fluorovinyl]-5-methyl-1H-pyrazol-1-yl}methyl)pyridin-2-yl]-4-(2,2,2-trifluoroethyl)piperazine], half-maximal inhibition (IC50) was put at 1 nM.

The molecule `CNc1ccc(Cn2nc(/C(F)=C/c3ccc(CN(C(C)C)C(C)C)cc3)cc2C)cn1` [Example 94, 5-({3-[(Z)-2-{4-[(Diisopropylamino)methyl]phenyl}-1-fluorovinyl]-5-methyl-1H-pyrazol-1-yl}-methyl)-N-methylpyridine-2-amine] returned an IC50 of 1 nM. This counts as single-digit nanomolar.

Turning to `CCNc1ccc(Cn2nc(/C(F)=C/c3ccc(C(C)(C)C(F)(F)F)cc3)cc2C)cn1` [Example 96, N-Ethyl-5-[(3-{(Z)-1-fluoro-2-[4-(1,1,1-trifluoro-2-methylpropan-2-yl)phenyl]vinyl}-5-methyl-1H-pyrazol-1-yl)methyl]pyridine-2-amine], the half-inhibitory concentration (IC50) turned out to be 1 nM.

For the molecule `Cc1cc(/C(F)=C/c2ccc(C(C)(C)C(F)(F)F)c(F)c2)nn1Cc1cccc(C2(O)CC2)c1` [Example 50, 1-{3-[(3-{(Z)-1-Fluoro-2-[3-fluoro-4-(1,1,1-trifluoro-2-methylpropan-2-yl)phenyl]vinyl}-5-methyl-1H-pyrazol-1-yl)methyl]phenyl}cyclopropanol], the concentration for half-maximal inhibition (IC50) turned out to be 1 nM.

With `Cc1cc(/C(F)=C/c2ccc(C(C)(C)C(F)(F)F)cc2)nn1Cc1cccc(C(C)(C)O)c1` [Example 54, 2-{3-[(3-{(Z)-1-Fluoro-2-[4-(1,1,1-trifluoro-2-methylpropan-2-yl)phenyl]vinyl}-5-methyl-1H-pyrazol-1-yl)methyl]phenyl}propan-2-ol], 3 nM corresponded to half-maximal inhibition (IC50).

`Cc1cc(/C=C(\F)c2ccc(OC(F)(F)F)cc2)nn1Cc1cccc(C(C)(C)O)c1` [Example 121, 2-{3-[(3-{(Z)-2-Fluoro-2-[4-(trifluoromethoxy)phenyl]vinyl}-5-methyl-1H-pyrazol-1-yl)methyl]phenyl}propan-2-ol] had a half-maximal inhibitory concentration (IC50) of 40 nM.

As to `Cc1cc(/C(F)=C/c2ccc(C(F)(F)F)cc2)nn1Cc1cccc(C(=O)N2CCCC2)c1` [Example 30, {3-[(3-{(Z)-1-Fluoro-2-[4-(trifluoromethyl)phenyl]vinyl}-5-methyl-1H-pyrazol-1-yl)methyl]-phenyl}(pyrrolidin-1-yl)methanone], the half-inhibitory concentration (IC50) worked out at 6 nM.

Molecule `Cc1cc(/C(F)=C/c2ccc(SC(F)(F)F)cc2)nn1Cc1cccc(C(=O)N2CCN(C3CC3)CC2)c1` [Example 38, (4-Cyclopropylpiperazin-1-yl)[3-({3-[(Z)-1-fluoro-2-{4-[(trifluoromethyl)sulphanyl]phenyl}vinyl]-5-methyl-1H-pyrazol-1-yl}methyl)phenyl]methanone] showed an IC50 of 4 nM.

In turn, `Cc1cc(/C(F)=C/c2ccc(OC(F)(F)F)c(Cl)c2)nn1Cc1ccnc(N2CCN(C3CC3)CC2)c1` [Example 103, 1-{4-[(3-{(Z)-2-[3-Chloro-4-(trifluoromethoxy)phenyl]-1-fluorovinyl}-5-methyl-1H-pyrazol-1-yl)-methyl]pyridin-2-yl}-4-cyclopropylpiperazine] registered an IC50 of 2.5 nM.

As to `CNc1ccc(Cn2nc(/C=C(\F)c3ccc(OC(F)(F)F)cc3)cc2C)cn1` [Example 117, 5-[(3-{(Z)-2-Fluoro-2-[4-(trifluoromethoxy)phenyl]vinyl}-5-methyl-1H-pyrazol-1-yl)methyl]-N-methylpyridine-2-amine], it took 30 nM to reach half-maximal inhibition (IC50).

Consider `Cc1cc(/C(F)=C/c2ccc(OC(F)(F)F)cc2)nn1Cc1cccc(N2CCC(O)CC2)c1` [Example 12, 1-{3-[(3-{(Z)-1-Fluoro-2-[4-(trifluoromethoxy)phenyl]vinyl}-5-methyl-1H-pyrazol-1-yl)methyl]phenyl}piperidin-4-ol], for which the IC50 came to 0.3 nM.

For `Cc1cc(/C(F)=C/c2ccc(OC(F)(F)F)cc2)nn1Cc1cccc(C(=O)N2CCC(O)CC2)c1` [Example 32, {3-[(3-{(Z)-1-Fluoro-2-[4-(trifluoromethoxy)phenyl]vinyl}-5-methyl-1H-pyrazol-1-yl)-methyl]phenyl}(4-hydroxypiperidin-1-yl)methanone], the midpoint of inhibition, the IC50, lay at 4 nM.

Regarding `Cc1ccc(Cn2nc(/C(F)=C/c3ccc(OC(F)(F)F)cc3)cc2C)cc1` [Example 2, 3-{(Z)-1-Fluoro-2-[4-(trifluoromethoxy)phenyl]vinyl}-5-methyl-1-(4-methylbenzyl)-1H-pyrazole], the IC50 is 30 nM.

Molecule `CNc1ccc(Cn2nc(/C(F)=C/c3ccc(C(C)(C)C)cc3)cc2C)cn1` [Example 87, 5-({3-[(Z)-2-(4-tert-Butylphenyl)-1-fluorovinyl]-5-methyl-1H-pyrazol-1-yl}methyl)-N-methylpyridine-2-amine] registered an IC50 of 0.7 nM.

Molecule `Cc1cc(/C(F)=C/c2ccc(OC(F)(F)F)cc2)nn1Cc1ccnc(N2CCN(C3CC3)CC2)c1` [Example 102, 1-Cyclopropyl-4-{4-[(3-{(Z)-1-fluoro-2-[4-(trifluoromethoxy)phenyl]vinyl}-5-methyl-1H-pyrazol-1-yl)methyl]pyridin-2-yl}piperazine] displayed an IC50 of 0.5 nM. The IC50 values of the last two molecules are within 1.5-fold of each other.

`CNc1ccc(Cn2nc(/C(F)=C/c3ccc(S(F)(F)(F)(F)F)cc3)cc2C)cn1` [Example 91, 5-[(3-{(Z)-1-Fluoro-2-[4-(pentafluoro-λ^6-sulphanyl)phenyl]vinyl}-5-methyl-1H-pyrazol-1-yl)-methyl]-N-methylpyridine-2-amine] returned an IC50 of 0.3 nM.

`Cc1cc(/C=C(\F)c2ccc(OC(F)(F)F)cc2)nn1Cc1ccnc(N2CCN(C3CC3)CC2)c1` [Example 120, 1-Cyclopropyl-4-{4-[(3-{(Z)-2-fluoro-2-[4-(trifluoromethoxy)phenyl]vinyl}-5-methyl-1H-pyrazol-1-yl)methyl]pyridin-2-yl}piperazine] came in with a concentration for half-maximal inhibition (IC50) of 20 nM.

With `Cc1cc(/C(F)=C/c2ccc([Si](C)(C)C)cc2)nn1Cc1ccnc(N2CCN(C3CC3)CC2)c1` [Example 106, 1-Cyclopropyl-4-{4-[(3-{(Z)-1-fluoro-2-[4-(trimethylsilyl)phenyl]vinyl}-5-methyl-1H-pyrazol-1-yl)methyl]pyridin-2-yl}piperazine], the IC50 was found to be 0.5 nM. Compared with the last molecule, the IC50 is about 40-fold lower.

The molecule `CNc1ccc(Cn2nc(/C(F)=C/c3ccc(C(C)C)cc3)cc2C)cn1` [Example 89, 5-({3-[(Z)-1-Fluoro-2-(4-isopropylphenyl)vinyl]-5-methyl-1H-pyrazol-1-yl}methyl)-N-methyl-pyridine-2-amine] showed a half-inhibitory concentration (IC50) of 2 nM. Compared with the last molecule, the IC50 is about 4-fold higher.

Take `Cc1cc(/C(F)=C/c2ccc(OC(F)(F)F)cc2)nn1Cc1cccc(C2(CO)CC2)c1` [Example 55, (1-{3-[(3-{(Z)-1-Fluoro-2-[4-(trifluoromethoxy)phenyl]vinyl}-5-methyl-1H-pyrazol-1-yl)methyl]-phenyl}cyclopropyl)methanol]: the IC50 stood at 4 nM.

With `CNc1ccc(Cn2nc(/C(F)=C/c3ccc(OC(F)(F)F)c(F)c3)cc2C)cn1` [Example 80, 5-[(3-{(Z)-1-Fluoro-2-[3-fluoro-4-(trifluoromethoxy)phenyl]vinyl}-5-methyl-1H-pyrazol-1-yl)-methyl]-N-methylpyridine-2-amine], the IC50 was 2.8 nM. The IC50 values of the last two molecules are within 1.5-fold of each other.

As to `CNc1ccc(Cn2nc(/C(F)=C/c3ccc(OC(F)(F)F)cc3)cc2C)cn1` [Example 79, 5-[(3-{(Z)-1-Fluoro-2-[4-(trifluoromethoxy)phenyl]vinyl}-5-methyl-1H-pyrazol-1-yl)methyl]-N-methylpyridine-2-amine], the IC50 was determined as 1 nM.

In turn, `CNc1ccc(Cn2nc(/C(F)=C/c3ccc(C(C)(C)C(F)(F)F)cc3)cc2C)cn1` [Example 83, 5-[(3-{(Z)-1-Fluoro-2-[4-(1,1,1-trifluoro-2-methylpropan-2-yl)phenyl]vinyl}-5-methyl-1H-pyrazol-1-yl)methyl]-N-methylpyridine-2-amine] displayed a 50% inhibitory concentration (IC50) of 0.4 nM.

`CNc1ccc(Cn2nc(/C(F)=C/c3ccc(C(F)(F)F)cc3)cc2C)cn1` [Example 85, 5-[(3-{(Z)-1-Fluoro-2-[4-(trifluoromethyl)phenyl]vinyl}-5-methyl-1H-pyrazol-1-yl)methyl]-N-methylpyridine-2-amine] registered a half-maximal inhibitory concentration (IC50) of 4 nM.

As for `Cc1cc(/C(F)=C/c2ccc(C3(C(F)(F)F)CC3)cc2)nn1Cc1cccc(C(=O)N2CCC(O)CC2)c1` [Example 35, [3-({3-[(Z)-1-Fluoro-2-{4-[1-(trifluoromethyl)cyclopropyl]phenyl}vinyl]-5-methyl-1H-pyrazol-1-yl}methyl)phenyl](4-hydroxypiperidin-1-yl)methanone], the IC50 came to 5 nM.

The values above are taken from patent US20130150325A1, “3-(Fluorovinyl)pyrazoles and their use” (BAYER INTELLECTUAL PROPERTY GMBH, priority 2011, published 2013).
